Laboratory results reported in PMC4514850, “A Novel TGR5 Activator WB403 Promotes GLP-1 Secretion and Preserves Pancreatic β-Cells in Type 2 Diabetic Mice” (PLoS ONE, 2015).
“Also recorded” adds a separate entry of the source.

Experiments:
hGPR120 = target: T1, hGPR120 (Homo sapiens, UniProt Q5NUL3); assay: GPR120-dependent calcium mobilization in transfected 293 cells; format: cell-based; conditions: 10 or 100 μmol/l
T1 construct: expressed in transfected cells; host or cells: 293 cells, transient transfection with a human GPR120 expression vector
T1 sequence (Q5NUL3 1-361): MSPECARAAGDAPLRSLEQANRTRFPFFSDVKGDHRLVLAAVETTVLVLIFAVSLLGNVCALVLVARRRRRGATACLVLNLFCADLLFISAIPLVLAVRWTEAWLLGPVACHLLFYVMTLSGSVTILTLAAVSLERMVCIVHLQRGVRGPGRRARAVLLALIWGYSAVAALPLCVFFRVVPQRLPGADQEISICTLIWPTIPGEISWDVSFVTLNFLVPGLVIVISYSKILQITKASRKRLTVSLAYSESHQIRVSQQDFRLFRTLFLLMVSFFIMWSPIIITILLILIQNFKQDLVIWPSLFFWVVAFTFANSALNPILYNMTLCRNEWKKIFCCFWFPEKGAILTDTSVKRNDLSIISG
Experimental: For human TGR5 luciferase (luc) assay, 293T cells were co-transfected with pCRE-luc, pTGR5 (kind gift from Prof. Johan Auwerx, Ecole Polytechnique Fédérale de Lausanne, Lausanne, Switzerland) and pRenilla (Promega, USA). WB403 was added 5 h later. Cells were harvested after 16 h and subjected to luciferase analysis on Lumistar Optima chemiluminescent detector (BMG labtech, Germany). For cAMP testing, 293T cells transiently transfected with pTGR5 or pGPR119 (GeneCopoeia, USA) were washed by FBS-free DMEM, and stimulated with WB403 in FBS-free DMEM containing 3-isobutyl-1-methyl-xanthine (IBMX, Sigma). Cell lysates were collected 30 min later and used for cAMP ELISA assay. FLIPR Calcium 5 assay kit (Molecular Devices, USA) was used for calcium mobilization assay. 293-GPR40 stable cells (kindly provided by Prof. Naiming Zhou of Zhejiang University, Hanzhou, China) or 293 cells transient transfected with GPR120 were seeded at 50,000 cells per well in black-walled clear-bottomed 96-well plates (Costar). An equal volume of loading buffer containing Fluo 4-AM was added the following day and cells were incubated for 1 h before stimulated with compounds. Increase of the intracellular Ca^2+ concentration was monitored by Flexstation 3 system (Molecular Devices, USA).
Fig 6 Effect of WB403 on GPCRs related to GLP-1 secretion. (A) GPCR expression in human NCI-H716 and mouse MIN6 cells. […]

normal mice = assay: oral glucose tolerance test in normal mice; format: in vivo; conditions: 4 g/kg glucose, oral 50, 100 mg/kg 30 min before load
Experimental: (§1) Mice were fasted overnight (14 h) before glucose tolerance tests. Normal mice received a 4 g/kg glucose challenge and for diabetic mice it’s 2 g/kg. WB403 at 50, 100 mg/kg, or sitagliptin at 100 mg/kg were administrated orally 30 min prior to glucose load (n = 10). For vehicle group, 0.5% CMC was administrated. Blood glucose levels were measured from tail bleeds with a glucometer (Roche, Accu-Chek Performa) at specified time points. Animals were treated and assessed in the order of the vehicle, WB403 50, 100 mg/kg and sitagliptin 100 mg/kg group.
Fig 2 Effects of WB403 on glucose tolerance during OGTT in normal and diabetic mice. OGTT time course and AUC in normal mice (A, B), HFD/STZ mice (C, D) and db/db mice (E, F). Values represent mean ± SD (n = 10). *p<0.05, **p<0.01, ***p<0.001 vs. vehicle group. Asterisks in A, C and E reflect significance between WB403 100 mg/kg and vehicle group.

ICR mice = assay: 7-day acute toxicity test in ICR mice; conditions: 6000 mg/kg group after 7-day acute toxicity test
primary enterocytes = assay: active GLP-1 secretion in primary enterocytes; format: cell-based; conditions: Fig 1G
Experimental: (§2) Endocrine differentiation was induced by seeding NCI-H716 cells in plates coated with Matrigel (Becton Dickinson). Cells were washed with RPMI-1640 medium without FBS and incubated in the same medium containing indicated compounds at 10 μmol/l. The condition medium was collected after 30 min. GLP-1 secretion in MIN6 or primary enterocytes was conducted similarly. To isolate primary enterocytes, ileum or colon was cut into 2 cm length, rinsed by PBS (pH7.2∼7.4) before dispersed in 10 mmol/l EDTA/PBS (pH7.4) for 15 min at room temperature, followed by pipetting up and down. Enterocytes were collected by filtration through a 70 μm cell strainer. To study the effect of WB403 on GLP-1 secretion in vivo, mice in group of three were fasted overnight and orally received 0, 50, 100 mg/kg of WB403 dispersed in 0.5% CMC with a DPP-4 inhibitor (5 mg/kg). There were 5 animals in each group. 2 g/kg glucose was administrated 30 min later and blood was collected 10 min after glucose challenge.
(§3) The GLP-1 (active) ELISA kit was purchased from Millipore, and insulin ELISA kit was from Mercodia. For quantitative determination of cAMP, a competitive enzyme immunoassay kit from R&D system was used. All immunoassays were performed according to manufacturers’ instructions.

db/db mice = assay: oral glucose tolerance test in db/db mice; format: in vivo; conditions: 2 g/kg glucose, oral 50, 100 mg/kg 30 min before load
Experimental: Five-week old male ICR mice and db/db (C57BL BKS cg-M+/+ lepr-/-) mice were purchased from Shanghai SLAC Laboratory Animal Co., Ltd. (Shanghai, China). Mice were housed 4–5 per cage and allowed access to normal chow diet and autoclaved water freely. They were fed at a constant room temperature (25°C) with a 12-h light (7:00 AM)/dark (7:00 PM) cycle. All the mice were monitored at least daily, and no adverse events were observed. In general, the db/db mice show a high food intake at 4-week old and become obese and develop type 2 diabetes at 8-week age. Postprandial 2 h blood glucose was assessed and mice with the similar degree of hyperglycemia and body weight were randomized into different groups in order to get a similar average PBG in each group.
as §1
Fig 2 Effects of WB403 on glucose tolerance during OGTT in normal and diabetic mice. […]

NCI-H716 cells = assay: active GLP-1 secretion in NCI-H716 cells; format: cell-based, human; conditions: 10 μmol/l, 30 min
Experimental: as §2, §3

CCc1cc(-c2nc(C)c(COCc3ccc(Br)cc3)s2)ccn1 [WB403, 4-(5-((4-bromobenzyloxy)-methyl)-4-methylthiazol-2-yl)-2-ethylpyridine]
hGPR120-Ca2+ activation (calcium mobilization) (hGPR120): neither did it exhibit significant effect; also recorded: no significant effect
blood glucose tolerance (OGTT) vs vehicle (normal mice): significant improvement in blood glucose tolerance
signs of toxicity in tissue sections (H&E) (ICR mice): did not show obvious signs of toxicity
GLP-1 stimulation in primary enterocytes (primary enterocytes): outstanding effect in GLP-1 stimulation
blood glucose tolerance (OGTT) vs vehicle (db/db mice): The same results
GLP-1 stimulation in NCI-H716 cells (NCI-H716 cells): much higher GLP-1 stimulation capacity; also recorded: outstanding effect in GLP-1 stimulation
